According to the supplement of paper PMC10307832:

What was measured:
Assay in all cases: relative viability (nuclei count vs DMSO), 5 days (fraction); higher = more cells survive
Idelalisib = compound: CC[C@H](Nc1ncnc2[nH]cnc12)c1nc2cccc(F)c2c(=O)n1-c1ccccc1 [Idelalisib]
Summary of the method: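 After an overnight hold at 37 °C, lung cancer cell lines in 1536-well plates were pinned with five library-drug doses (not always all listed), each √10 from the next, on vehicle-anchored plates. The cells stayed 5 days without fresh medium, then a one-step fix, permeabilisation and Hoechst stain preceded 4× imaging and MetaXpress nuclear counts. A plate passed only with control CV under 25% and at least one doubling. Viability is the median, over plates, of treated-well nuclei relative to vehicle-well nuclei.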

Pemetrexed + Tozasertib = compound: Nc1nc2[nH]cc(CCc3ccc(C(=O)N[C@@H](CCC(=O)O)C(=O)O)cc3)c2c(=O)[nH]1 [Pemetrexed] + Cc1cc(Nc2cc(N3CCN(C)CC3)nc(Sc3ccc(NC(=O)C4CC4)cc3)n2)n[nH]1 [Tozasertib] (partner 0.1 µM)
Summary of the method: (§1)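 Each reported value is a median over duplicate plates. It expresses relative viability: treated-well nuclei count divided by vehicle-well nuclei count. Lung cancer cell lines in 1536-well plates were dosed by pin tool a day after seeding, alone with one drug or with a fixed anchor-drug dose plus five library-drug doses (not always all listed) in √10 steps, and nuclei were counted after 5 days.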

Pemetrexed + Alpelisib = compound: Nc1nc2[nH]cc(CCc3ccc(C(=O)N[C@@H](CCC(=O)O)C(=O)O)cc3)c2c(=O)[nH]1 [Pemetrexed] + Cc1nc(NC(=O)N2CCC[C@H]2C(N)=O)sc1-c1ccnc(C(C)(C)C(F)(F)F)c1 [Alpelisib] (partner 2 µM)
Summary of the method: as §1

Idelalisib + OSI-027 = compound: CC[C@H](Nc1ncnc2[nH]cnc12)c1nc2cccc(F)c2c(=O)n1-c1ccccc1 [Idelalisib] + COc1cccc2cc(-c3nc([C@H]4CC[C@H](C(=O)O)CC4)n4ncnc(N)c34)[nH]c12 [OSI-027] (partner 0.5 µM)
Summary of the method: as §1

Cell Line	relative viability (Idelalisib; 0.04 µM)	relative viability (Idelalisib; 0.1265 µM)	relative viability (Idelalisib; 0.4 µM)	relative viability (Idelalisib; 1.265 µM)	relative viability (Idelalisib; 4 µM)	relative viability (Pemetrexed + Tozasertib; first compound 0.002 µM)	relative viability (Pemetrexed + Tozasertib; first compound 0.006325 µM)	relative viability (Pemetrexed + Tozasertib; first compound 0.02 µM)	relative viability (Pemetrexed + Tozasertib; first compound 0.06325 µM)	relative viability (Pemetrexed + Tozasertib; first compound 0.2 µM)	relative viability (Pemetrexed + Alpelisib; first compound 0.002 µM)	relative viability (Pemetrexed + Alpelisib; first compound 0.006325 µM)	relative viability (Pemetrexed + Alpelisib; first compound 0.02 µM)	relative viability (Pemetrexed + Alpelisib; first compound 0.06325 µM)	relative viability (Pemetrexed + Alpelisib; first compound 0.2 µM)	relative viability (Idelalisib + OSI-027; first compound 0.04 µM)	relative viability (Idelalisib + OSI-027; first compound 0.1265 µM)	relative viability (Idelalisib + OSI-027; first compound 0.4 µM)	relative viability (Idelalisib + OSI-027; first compound 1.265 µM)	relative viability (Idelalisib + OSI-027; first compound 4 µM)
NCI-H1395	1.07	0.991	0.846	0.912	0.741	0.783	0.721	0.826	0.717	0.79	0.964	0.916	1.14	1.14	1.02	0.713	0.639	0.621	0.561	0.454
NCI-H23	1.15	1.07	0.69	0.713	1	0.311	0.36	0.514	0.347	0.395	0.666	0.532	0.741	0.503	0.601	0.614	0.618	0.216	–	0.537
LOU-NH91	1.07	0.882	0.878	0.762	0.932	0.656	0.676	0.706	0.54	0.366	0.711	0.757	0.745	0.632	0.529	0.776	0.732	0.687	0.517	0.708
NCI-H2009	0.998	1.02	0.974	1.06	1.04	0.707	0.697	0.855	0.71	0.694	1.15	1.13	1.22	1.12	1.08	0.642	0.646	0.515	0.509	0.557
NCI-H358	1.04	0.864	0.794	0.901	0.861	0.116	0.141	0.108	0.102	0.0813	0.917	0.79	0.538	0.314	0.27	0.773	0.875	0.554	0.695	0.72
NCI-H2126	1.02	1.08	0.837	1.03	0.931	0.711	0.845	0.875	0.775	0.643	0.737	0.758	0.75	0.703	0.742	0.67	0.678	0.462	0.732	0.704
NCI-H1437	1.01	0.995	0.965	1.12	1.05	–	0.402	0.37	0.357	0.228	0.877	0.939	0.884	0.506	0.227	0.861	0.864	0.795	1.07	0.967
SK-LU-1	1.07	1.11	0.866	0.953	0.979	0.303	0.324	0.374	0.378	0.333	0.874	1.02	1.04	0.931	1.02	0.383	0.39	0.27	0.369	0.272
NCI-H838	0.958	0.993	0.851	0.921	0.753	0.229	0.276	0.295	0.265	0.203	0.989	0.878	1.14	0.934	0.372	0.416	0.346	0.271	0.453	0.317
NCI-H1755	1.01	1.01	0.955	0.926	0.949	0.575	0.571	0.619	0.615	0.458	0.828	0.935	0.923	0.926	0.862	0.69	0.687	0.584	0.675	0.573
NCI-H2228	1.22	0.84	0.788	1.12	0.972	0.318	–	0.266	0.209	0.173	0.833	0.721	0.752	0.474	0.319	0.687	0.725	0.453	0.637	0.597
NCI-H1915	1.08	0.999	0.948	1.11	0.984	0.403	0.439	0.45	0.417	0.425	0.995	1.04	1.03	1.09	1.1	0.699	0.633	0.627	0.739	0.53
NCI-H2347	1.1	1.03	0.904	1.14	0.866	0.337	0.516	0.595	0.589	0.356	0.858	0.893	1.07	0.869	0.633	0.379	0.332	0.367	0.348	0.257
HARA	1.02	1.05	0.783	1.23	0.794	0.13	0.0932	0.123	0.0911	0.0832	0.822	0.814	0.862	0.799	0.275	0.618	0.466	0.296	0.374	0.441
NCI-H2085	1.05	0.995	0.91	0.955	0.729	0.735	0.811	0.882	0.849	0.784	0.91	0.952	1.07	0.951	0.952	0.738	1.01	0.521	0.725	0.325
NCI-H650	0.938	1.01	0.885	1.05	0.889	0.666	0.691	0.826	0.734	0.74	1.17	0.999	1.11	0.956	1.09	0.491	0.574	0.446	0.527	0.506

Cell Line	relative viability (Idelalisib; 0.04 µM)	relative viability (Idelalisib; 0.1265 µM)	relative viability (Idelalisib; 0.4 µM)	relative viability (Idelalisib; 1.265 µM)	relative viability (Idelalisib; 4 µM)	relative viability (Pemetrexed + Tozasertib; first compound 0.002 µM)	relative viability (Pemetrexed + Tozasertib; first compound 0.006325 µM)	relative viability (Pemetrexed + Tozasertib; first compound 0.02 µM)	relative viability (Pemetrexed + Tozasertib; first compound 0.06325 µM)	relative viability (Pemetrexed + Tozasertib; first compound 0.2 µM)	relative viability (Pemetrexed + Alpelisib; first compound 0.002 µM)	relative viability (Pemetrexed + Alpelisib; first compound 0.006325 µM)	relative viability (Pemetrexed + Alpelisib; first compound 0.02 µM)	relative viability (Pemetrexed + Alpelisib; first compound 0.06325 µM)	relative viability (Pemetrexed + Alpelisib; first compound 0.2 µM)	relative viability (Idelalisib + OSI-027; first compound 0.04 µM)	relative viability (Idelalisib + OSI-027; first compound 0.1265 µM)	relative viability (Idelalisib + OSI-027; first compound 0.4 µM)	relative viability (Idelalisib + OSI-027; first compound 1.265 µM)	relative viability (Idelalisib + OSI-027; first compound 4 µM)
NCI-H727	1.07	1.16	0.715	0.987	0.887	0.6	0.584	0.498	0.738	0.61	0.577	0.534	0.596	0.678	0.594	0.749	0.708	0.45	0.562	0.52
NCI-H1993	1.1	1.12	0.804	0.917	0.7	0.68	0.46	0.523	0.615	0.506	0.731	0.645	0.661	0.754	0.785	0.575	0.53	0.512	0.584	0.552
EMC-BAC-2	1.25	0.989	0.878	1.01	1.11	0.327	0.255	0.296	0.278	0.244	0.795	0.676	0.801	0.738	0.693	0.388	0.411	0.308	0.363	0.352
NCI-H2087	1.09	1.13	0.868	1.12	0.749	0.257	0.276	0.287	0.297	0.232	0.939	1.02	0.926	1.01	0.603	0.593	0.513	0.324	0.633	0.319
NCI-H441	1.13	0.941	–	1.12	1.05	0.66	0.484	0.827	0.515	0.342	0.667	0.686	0.932	0.531	0.53	0.788	0.561	0.397	0.526	0.616
LXF-289	1.05	1.07	1	1.07	1.04	0.165	0.19	0.194	0.163	0.183	1.04	1	1.07	1.05	0.969	0.879	0.782	0.632	0.813	0.764
NCI-H661	1.07	0.976	0.98	1.01	0.994	0.368	0.325	0.349	0.348	0.351	0.732	0.563	0.621	0.636	0.794	0.705	0.838	0.607	0.661	0.706
PC-3 [JPC-3]	1.19	1.05	1.03	1.02	0.915	0.82	0.939	0.895	0.878	0.861	0.948	1.04	1.04	1.03	0.972	0.712	0.747	0.639	0.694	0.571
HCC-366	1.06	0.993	0.986	0.987	0.966	0.0686	0.0859	0.205	0.126	0.124	0.448	0.507	0.365	0.452	0.376	1.09	0.889	0.598	0.788	0.677
NCI-H1651	1.01	1.01	0.885	0.965	0.938	0.684	0.645	0.703	0.658	0.644	0.951	0.948	0.939	0.952	0.93	0.701	0.731	0.508	0.778	0.596
NCI-H1355	1.03	1	0.871	0.961	0.861	0.532	0.516	0.554	0.632	0.586	0.805	0.768	0.822	0.843	0.858	0.401	0.476	0.273	0.401	0.366
LC-2-ad	1.05	1	0.962	1.12	0.93	0.378	0.45	0.43	0.296	0.259	0.888	0.936	0.833	0.232	0.187	0.944	0.781	0.651	0.82	0.715
NCI-H1944	1.21	0.943	0.785	1.01	0.803	–	0.306	0.269	0.241	0.242	0.674	0.751	0.869	0.789	0.766	0.473	0.411	0.271	0.396	0.365
HCC-827	1.08	1.05	1.01	1.08	0.952	0.377	0.414	0.441	0.44	0.335	0.891	0.977	0.996	1.07	0.726	0.928	0.738	0.759	0.698	0.659
COR-L23	1.12	1.05	0.931	1.14	0.949	0.229	0.196	0.197	0.12	0.105	0.803	0.719	0.72	0.259	0.176	0.78	0.815	0.722	0.809	0.74
